Earlier results, collected in patent US20230013142A1, “IODINE COMPOUNDS FOR TREATING RESPIRATORY PATHOGENS” (priority 2020, published 2023).

Key:
viral haemagglutinin = settings: blockade of attachment to host cell receptors
neuraminidase = settings: virucidal mechanism of action
a variety of viruses = settings: on the skin
[1] = I2 and I- mixed solutions
[2] = rats, ingestion, 2-year period
parasite's acid vesicles = settings: biologically active concentrations

povidone iodine (2-Pyrrolidinone, 1-ethenyl-homopolymer) [PVP-I]
effect on viral haemagglutinin (viral haemagglutinin): inhibits
effect on neuraminidase (neuraminidase): inhibition

II [iodine]
air level considered immediately dangerous to life or health (IDLH) (air level): 2 ppm
concentration at which reports of discomfort start (NIOSH) (inhalation): 1.5 ppm
concentration at which work is difficult (inhalation): 1.5-2 ppm
concentration at which short term exposure can be irritating (as low as) (inhalation, short term exposure): 0.1 ppm
concentration at which decreased virulence of viruses occurred (influenza viruses; in vitro): 0.005 ppm
concentration for complete inactivation of viruses (influenza viruses; within 1 minute in vitro): 0.1 ppm
time for successful use against viruses (a variety of viruses): ≤ 5 min
evaporation rate relative to 26 degrees (room temperature) ([1]; at 50 degrees Centigrade): over 10 times
evaporation rate relative to 26 degrees ([1]; at 80 degrees): over 30 times

[I-].[K+] [potassium iodide]
concentration with long-term decrease in life span [2]: 100 ppm
concentration with no long-term effects [2]: 10 ppm

CCN(CC)CCCC(C)Nc1ccnc2cc(Cl)ccc12 (centres unmarked) [chloroquine]
time to increase of pH of acid vesicles (parasite's acid vesicles): 3-5 min
